Data as given in PubChem BioAssay (NCI).
Where “and” joins values, the source holds several entries; their conditions need not be identical. Equal values may be shown once.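 1) Cells in 96-well plates. 2) Compound, 48 h, 5 concentrations. 3) Linear interpolation between surrounding doses. 4) Unreached endpoint = highest concentration. Here, GI50 denotes the concentration required for 50% inhibition of growth. TGI marks complete inhibition of growth.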

Tests used:
Test in all cases: inhibition of tumour cell growth, NCI panel, 48 h
[1] = system: MDA-MB-231 breast
[2] = system: OVCAR-5 ovarian
[3] = system: SF-539 CNS
[4] = system: MDA-N
[5] = system: NCI/ADR-RES ovarian
[6] = system: RXF 393 renal
[7] = system: DU-145 prostate
[8] = system: HCT-15 colon
[9] = system: SF-268 CNS
[10] = system: MCF7 breast
[11] = system: SNB-75 CNS
[12] = system: SK-MEL-5 melanoma
[13] = system: IGROV1 ovarian
[14] = system: NCI-H460 lung
[15] = system: A498 renal
[16] = system: RPMI-8226 leukemia
[17] = system: CCRF-CEM leukemia
[18] = system: SK-MEL-28 melanoma
[19] = system: HCT-116 colon
[20] = system: MOLT-4 leukemia
[21] = system: K-562 leukemia
[22] = system: NCI-H522 lung
[23] = system: HCC-2998 colon
[24] = system: SW-620 colon
[25] = system: COLO 205 colon
[26] = system: HT29 colon
[27] = system: SN12C renal
[28] = system: HS 578T breast
[29] = system: LOX IMVI melanoma
[30] = system: UO-31 renal
[31] = system: SK-MEL-2 melanoma
[32] = system: NCI-H226 lung
[33] = system: 786-0 renal
[34] = system: MDA-MB-435
[35] = system: M14 melanoma
[36] = system: MALME-3M melanoma
[37] = system: NCI-H23 lung
[38] = system: U251 CNS
[39] = system: BT-549 breast
[40] = system: SF-295 CNS
[41] = system: A549 NSCLC
[42] = system: HOP-62 NSCLC
[43] = system: T-47D breast
[44] = system: OVCAR-4 ovarian
[45] = system: UACC-257 melanoma
[46] = system: HOP-92 NSCLC
[47] = system: UACC-62 melanoma
[48] = system: HL-60(TB) leukemia
[49] = system: SR leukemia
[50] = system: KM12 colon
[51] = system: ACHN renal
[52] = system: SNB-19 CNS
[53] = system: TK-10 renal
[54] = system: SK-OV-3 ovarian
[55] = system: OVCAR-3 ovarian
[56] = system: OVCAR-8 ovarian
[57] = system: EKVX NSCLC
[58] = system: PC-3 prostate
[59] = system: CAKI-1 renal

With `C/C(=N\NC(=S)NCCCNC(=S)N/N=C(\C)c1ccccn1)c1ccccn1` the TGI [1] was greater than 49.9 µM, the TGI [2] was greater than 90.3 µM and the TGI [3] was 8.72 µM. For the same compound, the TGI [4] was greater than 100 µM, the TGI [5] was 8.19 µM and the TGI [6] was 14.7 µM. It also gave a TGI [7] of 33.9 µM, a TGI [8] greater than 30.7 µM and a TGI [9] of 21 µM. The TGI [10] was greater than 50.6 µM, the TGI [11] was 31.7 µM and the TGI [12] was greater than 22 µM. It also gave a TGI [13] of 37.4 µM, a TGI [14] of 10.1 µM and a TGI [15] of 26.2 µM. The TGI [16] was greater than 100 µM, the TGI [17] was 9.4 µM and the TGI [18] was greater than 100 µM. It also gave a TGI [19] of 24 µM, a TGI [20] greater than 100 µM and a TGI [21] greater than 100 µM. The TGI [22] was greater than 49.4 µM, the TGI [23] was greater than 59.1 µM and the TGI [24] was greater than 100 µM. The TGI [25] was greater than 34.9 µM, the TGI [26] was greater than 100 µM and the TGI [27] was 11.2 µM. The TGI [28] was greater than 100 µM, the TGI [29] was greater than 51.2 µM and the TGI [30] was greater than 54.1 µM. It also gave a TGI [31] greater than 50.9 µM, a TGI [32] greater than 29.6 µM and a TGI [33] of 6.07 µM. For the same compound, the TGI [34] was greater than 43.5 µM, the TGI [35] was 4.08 µM and the TGI [36] was 17.5 µM. For the same compound, the TGI [37] was greater than 54.4 µM, the TGI [38] was greater than 47.1 µM and the TGI [39] was 21.9 µM. For the same compound, the TGI [40] was 46.1 µM, the TGI [41] was greater than 49.8 µM and the TGI [42] was 20.7 µM. For the same compound, the TGI [43] was greater than 24.1 µM, the TGI [44] was greater than 54 µM and the TGI [45] was 29 µM. For the same compound, the TGI [46] was greater than 66.2 µM, the TGI [47] was 14.2 µM and the TGI [48] was greater than 30.2 µM. For the same compound, the TGI [49] was 6.19 µM, the TGI [50] was greater than 76.1 µM and the TGI [51] was 16.6 µM. For the same compound, the TGI [52] was greater than 69.7 µM, the TGI [53] was 24.2 µM and the TGI [54] was greater than 35.1 µM. It also gave a TGI [55] of 20.7 µM, a TGI [56] of 10.9 µM and a TGI [57] greater than 63.9 µM. It also gave a TGI [58] greater than 91.5 µM and a TGI [59] greater than 49.9 µM.
`Nc1onc2c1Cc1c(noc1N)-c1ccccc1-2` was tested, and the TGI [1] was greater than 100 µM, the TGI [2] was greater than 100 µM and the TGI [3] was greater than 100 µM. The TGI [4] was greater than 100 µM, the TGI [5] was greater than 100 µM and the TGI [6] was greater than 100 µM. For the same compound, the TGI [7] was greater than 100 µM, the TGI [8] was greater than 100 µM and the TGI [9] was greater than 100 µM. For the same compound, the TGI [10] was greater than 100 µM, the TGI [11] was 95.1 µM and the TGI [12] was greater than 100 µM. The TGI [13] was greater than 100 µM, the TGI [14] was greater than 100 µM and the TGI [15] was 72.2 µM. The TGI [16] was greater than 100 µM, the TGI [17] was greater than 100 µM and the TGI [18] was greater than 100 µM. It also gave a TGI [19] greater than 100 µM, a TGI [20] greater than 100 µM and a TGI [21] greater than 100 µM. It also gave a TGI [22] greater than 100 µM, a TGI [23] greater than 100 µM and a TGI [24] greater than 100 µM. For the same compound, the TGI [25] was greater than 100 µM, the TGI [26] was greater than 100 µM and the TGI [27] was greater than 100 µM. It also gave a TGI [28] of 83.8 µM, a TGI [29] greater than 100 µM and a TGI [30] greater than 100 µM. For the same compound, the TGI [31] was greater than 100 µM, the TGI [32] was greater than 100 µM and the TGI [33] was greater than 100 µM. For the same compound, the TGI [34] was greater than 100 µM, the TGI [35] was greater than 100 µM and the TGI [36] was greater than 100 µM. The TGI [37] was greater than 100 µM, the TGI [38] was greater than 100 µM and the TGI [39] was 50.4 µM. It also gave a TGI [40] greater than 100 µM, a TGI [41] greater than 100 µM and a TGI [42] greater than 100 µM. The TGI [43] was greater than 100 µM, the TGI [44] was greater than 100 µM and the TGI [45] was greater than 100 µM. The TGI [46] was 94.6 µM, the TGI [47] was greater than 100 µM and the TGI [48] was 49.7 µM. The TGI [49] was greater than 100 µM, the TGI [50] was greater than 100 µM and the TGI [51] was greater than 100 µM. The TGI [52] was greater than 100 µM, the TGI [53] was greater than 100 µM and the TGI [54] was greater than 100 µM. It also gave a TGI [55] greater than 100 µM, a TGI [56] greater than 100 µM and a TGI [57] of 66.1 µM. The TGI [58] was greater than 100 µM and the TGI [59] was greater than 100 µM.
`CCCCCCCCCCCCC(O)[C@H]1CC[C@H](C(O)CCCCCC(=O)CCCCC2CC(C(C)=O)C(=O)O2)O1` (stereo not given in full) gave a GI50 [1] of 2800 nM, a TGI [1] of 44.6 µM and a TGI [2] of 50 µM. For the same compound, the TGI [3] was 35.6 µM, the GI50 [4] was 7.67 µM and the TGI [4] was 23.2 µM. It also gave a GI50 [5] of 1870 nM, a TGI [5] of 40.4 µM and a TGI [6] of 22.2 µM. For the same compound, the TGI [7] was greater than 100 µM, the GI50 [8] was 6.51 µM and the TGI [8] was greater than 70.9 µM. It also gave a GI50 [9] of 3.43 µM, a TGI [9] of 53.4 µM and a GI50 [10] of 1380 nM. For the same compound, the TGI [10] was greater than 51.6 µM, the GI50 [11] was 7.11 µM and the TGI [11] was 59.3 µM. The GI50 [12] was 1110 nM, the TGI [12] was 4.97 µM and 20.4 µM and the GI50 [13] was 4.3 µM. It also gave a TGI [13] of 71.6 µM, a GI50 [14] of 9.67 µM and a TGI [14] of 22.5 µM. The GI50 [15] was 2620 nM, the TGI [15] was 36.6 µM and the GI50 [16] was 2120 nM. For the same compound, the TGI [16] was greater than 27.8 µM, the GI50 [17] was 2150 nM and the TGI [17] was greater than 45.6 µM. It also gave a GI50 [18] of 4.06 µM, a TGI [18] of 66.2 µM and a GI50 [19] of 7.23 µM. For the same compound, the TGI [19] was 36 µM, the GI50 [20] was 2810 nM and 2140 nM and the TGI [20] was 23.4 µM. It also gave a GI50 [21] of 1910 nM, a TGI [21] greater than 63.6 µM and a TGI [22] of 25.6 µM. The TGI [23] was 32.1 µM, the GI50 [24] was 4.08 µM and the TGI [24] was greater than 100 µM. The GI50 [25] was 2160 nM, the TGI [25] was greater than 57.8 µM and the GI50 [26] was 2960 nM. The TGI [26] was greater than 53.5 µM, the GI50 [27] was 12.9 µM and the TGI [27] was 29 µM. For the same compound, the GI50 [28] was 4.42 µM, the TGI [28] was 51.2 µM and the GI50 [29] was 1870 nM. It also gave a TGI [29] of 21.6 µM, a TGI [30] of 26.9 µM and a TGI [31] of 28.3 µM. It also gave a GI50 [32] of 3.48 µM, a TGI [32] of 46.1 µM and a TGI [33] of 52.1 µM. It also gave a GI50 [34] of 1920 nM, a TGI [34] of 35.6 µM and a GI50 [35] of 6.01 µM. It also gave a TGI [35] of 26.2 µM, a TGI [36] of 23.7 µM and a GI50 [37] of 1720 nM. The TGI [37] was 63.8 µM, the GI50 [38] was 3.99 µM and the TGI [38] was greater than 62.5 µM. For the same compound, the TGI [39] was 59.5 µM, the GI50 [40] was 2700 nM and the TGI [40] was 37.6 µM. For the same compound, the GI50 [41] was 2330 nM, the TGI [41] was greater than 100 µM and the TGI [42] was 26.6 µM. For the same compound, the GI50 [43] was 3.84 µM, the TGI [43] was greater than 41.5 µM and the TGI [44] was 39.4 µM. It also gave a GI50 [45] of 1300 nM, a TGI [45] of 19.1 µM and a GI50 [46] of 3.23 µM. For the same compound, the TGI [46] was 31.7 µM, the GI50 [47] was 3.84 µM and the TGI [47] was 21.6 µM. For the same compound, the GI50 [48] was 2680 nM, the TGI [48] was greater than 29.5 µM and the GI50 [49] was 1760 nM. It also gave a TGI [49] greater than 38.1 µM, a GI50 [50] of 4.2 µM and a TGI [50] of 24.3 µM. For the same compound, the GI50 [51] was 1680 nM, the TGI [51] was 70.4 µM and the GI50 [52] was 4.56 µM. It also gave a TGI [52] of 73.9 µM, a TGI [53] greater than 68.6 µM and a TGI [54] of 28 µM. The GI50 [55] was 2250 nM, the TGI [55] was 19.3 µM and the GI50 [56] was 4.34 µM. The TGI [56] was greater than 53.9 µM, the GI50 [57] was 3.24 µM and the TGI [57] was 54.8 µM. For the same compound, the GI50 [58] was 3.55 µM, the TGI [58] was 28.1 µM and the TGI [59] was 50.3 µM.
